Experiment: Storage stability of dry pharmaceutical grade malathion, HPLC (Example 18)
Assay type: physicochemical
Protocol: Purity was determined using a high performance liquid chromatography (HPLC) instrument with a variable wavelength detector.
Isomalathion content was determined using a high performance liquid chromatography (HPLC) instrument with a variable wavelength detector.
Four (4) samples of Dry Pharmaceutical Grade Malathion from Example 16, each weighing about 3-3.5 grams, were placed in separate clear glass bottles closed by a cap coated with polytetrafluoroethylene (PTFE). Each bottle was then inserted into a separate black polyethylene (PE) bag, which was tightly closed with a strip fastener. Each bag was then placed in a separate carton box.
The four (4) samples were stored for three (3) months under the following conditions: • Sample One: 40° C.±2° C. and 75%±5% relative humidity, • Sample Two: 30° C.±2° C. and 60%±5% relative humidity, • Sample Three: 25° C.±2° C. and 60%±5% relative humidity, and • Sample Four: 5° C.±3° C. and ambient relative humidity
The purity of each sample was determined after storage for one (1), two (2), and three (3) months using HPLC as set forth above (See Methodology and Protocols: End-of-Process Determination of Assay, Purity, and Impurities Other Than Isomalathion, End-of-Process Determination of Isomalathion).

[1] = Storage at 5° C. ± 3° C. and ambient relative humidity
[2] = Storage at 25° C. ± 2° C. and 60% ± 5% relative humidity
[3] = Storage at 30° C. ± 2° C. and 60% ± 5% relative humidity
[4] = Storage at 40° C. ± 2° C. and 75% ± 5% relative humidity

CCOC(=O)CC(SP(=S)(OC)OC)C(=O)OCC (stereo not shown) [[(dimethoxyphosphinothioyl)thio]butanedioic acid diethyl ester]
Diethyl fumarate Quantity After 1 Month [1]: <0.01 (LOD) % w/w
Diethyl fumarate Quantity After 2 Months [1]: <0.01 (LOD) % w/w
Diethyl fumarate Quantity After 3 Months [1]: <0.01 (LOD) % w/w
Dimethyl malathion Quantity After 1 Month [1]: <0.02 (LOD) % w/w
Dimethyl malathion Quantity After 2 Months [1]: <0.02 (LOD) % w/w
Dimethyl malathion Quantity After 3 Months [1]: <0.02 (LOD) % w/w
Isomalathion Quantity After 1 Month [1]: <0.02 (LOD) % w/w
Isomalathion Quantity After 2 Months [1]: <0.03 (LOQ) % w/w
Isomalathion Quantity After 3 Months [1]: <0.03 (LOQ) % w/w
Malaoxon Quantity After 1 Month [1]: <0.05 (LOD) % w/w
Malaoxon Quantity After 2 Months [1]: <0.05 (LOD) % w/w
Malaoxon Quantity After 3 Months [1]: <0.05 (LOD) % w/w
MeOOSPO Quantity After 1 Month [1]: <0.04 (LOD) % w/w
MeOOSPO Quantity After 2 Months [1]: <0.04 (LOD) % w/w
MeOOSPO Quantity After 3 Months [1]: <0.04 (LOD) % w/w
MeOOSPS Quantity After 1 Month [1]: 0.1 % w/w
MeOOSPS Quantity After 2 Months [1]: 0.1 % w/w
MeOOSPS Quantity After 3 Months [1]: 0.1 % w/w
MeOSSPO Quantity After 1 Month [1]: <0.02 (LOD) % w/w
MeOSSPO Quantity After 2 Months [1]: <0.02 (LOD) % w/w
MeOSSPO Quantity After 3 Months [1]: <0.02 (LOD) % w/w
Methyl malathion Quantity After 1 Month [1]: 0.05 % w/w
Methyl malathion Quantity After 2 Months [1]: 0.06 % w/w
Methyl malathion Quantity After 3 Months [1]: 0.06 % w/w
O,O-Me, Et Malathion analog Quantity After 1 Month [1]: 0.07 % w/w
O,O-Me, Et Malathion analog Quantity After 2 Months [1]: 0.07 % w/w
O,O-Me, Et Malathion analog Quantity After 3 Months [1]: 0.07 % w/w
Tetraethyl dithiodisuccinate Quantity After 1 Month [1]: 0.06 % w/w
Tetraethyl dithiodisuccinate Quantity After 2 Months [1]: 0.06 % w/w
Tetraethyl dithiodisuccinate Quantity After 3 Months [1]: 0.06 % w/w
Unknown (RRT = 0.38) Quantity After 1 Month [1]: 0.04 % w/w
Unknown (RRT = 0.38) Quantity After 2 Months [1]: 0.04 % w/w
Unknown (RRT = 0.38) Quantity After 3 Months [1]: 0.04 % w/w
Diethyl fumarate Quantity After 1 Month [2]: <0.01 (LOD) % w/w
Diethyl fumarate Quantity After 2 Months [2]: <0.01 (LOD) % w/w
Diethyl fumarate Quantity After 3 Months [2]: <0.01 (LOD) % w/w
Dimethyl malathion Quantity After 1 Month [2]: <0.02 (LOD) % w/w
Dimethyl malathion Quantity After 2 Months [2]: <0.02 (LOD) % w/w
Dimethyl malathion Quantity After 3 Months [2]: <0.02 (LOD) % w/w
Isomalathion Quantity After 1 Month [2]: <0.03 (LOQ) % w/w
Isomalathion Quantity After 2 Months [2]: <0.02 (LOD) % w/w
Isomalathion Quantity After 3 Months [2]: 0.04 % w/w
Malaoxon Quantity After 1 Month [2]: <0.05 (LOD) % w/w
Malaoxon Quantity After 2 Months [2]: <0.05 (LOD) % w/w
Malaoxon Quantity After 3 Months [2]: <0.05 (LOD) % w/w
MeOOSPO Quantity After 1 Month [2]: <0.04 (LOD) % w/w
MeOOSPO Quantity After 2 Months [2]: <0.04 (LOD) % w/w
MeOOSPO Quantity After 3 Months [2]: <0.04 (LOD) % w/w
MeOOSPS Quantity After 1 Month [2]: 0.1 % w/w
MeOOSPS Quantity After 2 Months [2]: 0.1 % w/w
MeOOSPS Quantity After 3 Months [2]: 0.1 % w/w
MeOSSPO Quantity After 1 Month [2]: <0.02 (LOD) % w/w
MeOSSPO Quantity After 2 Months [2]: <0.02 (LOD) % w/w
MeOSSPO Quantity After 3 Months [2]: <0.02 (LOD) % w/w
Methyl malathion Quantity After 1 Month [2]: 0.05 % w/w
Methyl malathion Quantity After 2 Months [2]: 0.05 % w/w
Methyl malathion Quantity After 3 Months [2]: 0.06 % w/w
O,O-Me, Et Malathion analog Quantity After 1 Month [2]: 0.08 % w/w
O,O-Me, Et Malathion analog Quantity After 2 Months [2]: 0.07 % w/w
O,O-Me, Et Malathion analog Quantity After 3 Months [2]: 0.07 % w/w
Tetraethyl dithiodisuccinate Quantity After 1 Month [2]: 0.06 % w/w
Tetraethyl dithiodisuccinate Quantity After 2 Months [2]: 0.06 % w/w
Tetraethyl dithiodisuccinate Quantity After 3 Months [2]: 0.06 % w/w
Unknown (RRT = 0.27) Quantity After 1 Month [2]: <0.02 (LOD) % w/w
Unknown (RRT = 0.27) Quantity After 2 Months [2]: <0.02 (LOD) % w/w
Unknown (RRT = 0.27) Quantity After 3 Months [2]: 0.06 % w/w
Unknown (RRT = 0.38) Quantity After 1 Month [2]: 0.04 % w/w
Unknown (RRT = 0.38) Quantity After 2 Months [2]: 0.04 % w/w
Unknown (RRT = 0.38) Quantity After 3 Months [2]: 0.04 % w/w
Diethyl fumarate Quantity After 1 Month [3]: <0.01 (LOD) % w/w
Diethyl fumarate Quantity After 2 Months [3]: <0.01 (LOD) % w/w
Diethyl fumarate Quantity After 3 Months [3]: <0.01 (LOD) % w/w
Dimethyl malathion Quantity After 1 Month [3]: <0.02 (LOD) % w/w
Dimethyl malathion Quantity After 2 Months [3]: <0.02 (LOD) % w/w
Dimethyl malathion Quantity After 3 Months [3]: <0.02 (LOD) % w/w
Isomalathion Quantity After 1 Month [3]: 0.03 % w/w
Isomalathion Quantity After 2 Months [3]: 0.04 % w/w
Isomalathion Quantity After 3 Months [3]: 0.06 % w/w
Malaoxon Quantity After 1 Month [3]: <0.05 (LOD) % w/w
Malaoxon Quantity After 2 Months [3]: <0.05 (LOD) % w/w
Malaoxon Quantity After 3 Months [3]: <0.05 (LOD) % w/w
MeOOSPO Quantity After 1 Month [3]: <0.04 (LOD) % w/w
MeOOSPO Quantity After 2 Months [3]: <0.04 (LOD) % w/w
MeOOSPO Quantity After 3 Months [3]: <0.04 (LOD) % w/w
MeOOSPS Quantity After 1 Month [3]: 0.1 % w/w
MeOOSPS Quantity After 2 Months [3]: 0.1 % w/w
MeOOSPS Quantity After 3 Months [3]: 0.1 % w/w
MeOSSPO Quantity After 1 Month [3]: <0.02 (LOD) % w/w
MeOSSPO Quantity After 2 Months [3]: <0.02 (LOD) % w/w
MeOSSPO Quantity After 3 Months [3]: <0.02 (LOD) % w/w
Methyl malathion Quantity After 1 Month [3]: 0.05 % w/w
Methyl malathion Quantity After 2 Months [3]: 0.06 % w/w
Methyl malathion Quantity After 3 Months [3]: 0.06 % w/w
O,O-Me, Et Malathion analog Quantity After 1 Month [3]: 0.08 % w/w
O,O-Me, Et Malathion analog Quantity After 2 Months [3]: 0.08 % w/w
O,O-Me, Et Malathion analog Quantity After 3 Months [3]: 0.07 % w/w
Tetraethyl dithiodisuccinate Quantity After 1 Month [3]: 0.06 % w/w
Tetraethyl dithiodisuccinate Quantity After 2 Months [3]: 0.05 % w/w
Tetraethyl dithiodisuccinate Quantity After 3 Months [3]: 0.06 % w/w
Unknown (RRT = 0.06) Quantity After 1 Month [3]: <0.02 (LOD) % w/w
Unknown (RRT = 0.06) Quantity After 2 Months [3]: <0.02 (LOD) % w/w
Unknown (RRT = 0.06) Quantity After 3 Months [3]: 0.04 % w/w
Unknown (RRT = 0.27) Quantity After 1 Month [3]: <0.02 (LOD) % w/w
Unknown (RRT = 0.27) Quantity After 2 Months [3]: 0.07 % w/w
Unknown (RRT = 0.27) Quantity After 3 Months [3]: 0.15 % w/w
Unknown (RRT = 0.38) Quantity After 1 Month [3]: 0.04 % w/w
Unknown (RRT = 0.38) Quantity After 2 Months [3]: 0.04 % w/w
Unknown (RRT = 0.38) Quantity After 3 Months [3]: 0.04 % w/w
Diethyl fumarate Quantity After 1 Month [4]: <0.01 (LOD) % w/w
Diethyl fumarate Quantity After 2 Months [4]: <0.01 (LOD) % w/w
Diethyl fumarate Quantity After 3 Months [4]: <0.02 (LOQ) % w/w
Dimethyl malathion Quantity After 1 Month [4]: <0.02 (LOD) % w/w
Dimethyl malathion Quantity After 2 Months [4]: <0.02 (LOD) % w/w
Dimethyl malathion Quantity After 3 Months [4]: <0.02 (LOD) % w/w
Isomalathion Quantity After 1 Month [4]: 0.06 % w/w
Isomalathion Quantity After 2 Months [4]: 0.1 % w/w
Isomalathion Quantity After 3 Months [4]: 0.1 % w/w
Malaoxon Quantity After 1 Month [4]: <0.05 (LOD) % w/w
Malaoxon Quantity After 2 Months [4]: <0.05 (LOD) % w/w
Malaoxon Quantity After 3 Months [4]: <0.05 (LOD) % w/w
MeOOSPO Quantity After 1 Month [4]: <0.04 (LOD) % w/w
MeOOSPO Quantity After 2 Months [4]: <0.04 (LOD) % w/w
MeOOSPO Quantity After 3 Months [4]: 0.05 % w/w
MeOOSPS Quantity After 1 Month [4]: 0.1 % w/w
MeOOSPS Quantity After 2 Months [4]: 0.2 % w/w
MeOOSPS Quantity After 3 Months [4]: 0.2 % w/w
MeOSSPO Quantity After 1 Month [4]: <0.02 (LOD) % w/w
MeOSSPO Quantity After 2 Months [4]: <0.02 (LOD) % w/w
MeOSSPO Quantity After 3 Months [4]: <0.02 (LOD) % w/w
Methyl malathion Quantity After 1 Month [4]: 0.06 % w/w
Methyl malathion Quantity After 2 Months [4]: 0.06 % w/w
Methyl malathion Quantity After 3 Months [4]: 0.06 % w/w
O,O-Me, Et Malathion analog Quantity After 1 Month [4]: 0.08 % w/w
O,O-Me, Et Malathion analog Quantity After 2 Months [4]: 0.07 % w/w
O,O-Me, Et Malathion analog Quantity After 3 Months [4]: 0.07 % w/w
Tetraethyl dithiodisuccinate Quantity After 1 Month [4]: 0.06 % w/w
Tetraethyl dithiodisuccinate Quantity After 2 Months [4]: 0.05 % w/w
Tetraethyl dithiodisuccinate Quantity After 3 Months [4]: 0.07 % w/w
Unknown (RRT = 0.06) Quantity After 1 Month [4]: <0.02 (LOD) % w/w
Unknown (RRT = 0.06) Quantity After 2 Months [4]: <0.02 (LOD) % w/w
Unknown (RRT = 0.06) Quantity After 3 Months [4]: 0.04 % w/w
Unknown (RRT = 0.25) Quantity After 1 Month [4]: <0.02 (LOD) % w/w
Unknown (RRT = 0.25) Quantity After 2 Months [4]: 0.06 % w/w
Unknown (RRT = 0.25) Quantity After 3 Months [4]: 0.12 % w/w
Unknown (RRT = 0.27) Quantity After 1 Month [4]: 0.10 % w/w
Unknown (RRT = 0.27) Quantity After 2 Months [4]: 0.38 % w/w
Unknown (RRT = 0.27) Quantity After 3 Months [4]: 0.76 % w/w
Unknown (RRT = 0.38) Quantity After 1 Month [4]: 0.04 % w/w
Unknown (RRT = 0.38) Quantity After 2 Months [4]: 0.04 % w/w
Unknown (RRT = 0.38) Quantity After 3 Months [4]: 0.04 % w/w
Storage stability (conclusion in words) (three (3) months at 5, 25, 30 and 40° C. conditions): storage stable
